# Data published in article PMC10385579, “Design, Synthesis, and Biological Evaluation of Indole-2-carboxamides as Potential Multi-Target Antiproliferative Agents” (Pharmaceuticals, 2023).
# Legend:
# [1] = Cell viability assay (MTT) on MCF-10A; format: cell-based; conditions: human, MCF-10A mammary gland epithelial cells, MCF-10A cells, four days
# Description: To assess the viability of compounds IV and Va–i, the human mammary gland epithelial (MCF-10A) cell line was exploited. Compounds IV and Va–i were cultured for four days on MCF-10A cells before being evaluated for vitality using the MTT assay.
# To test the viability of the new compounds, the human mammary gland epithelial (MCF-10A) cell line was used. Compounds IV and Va–i were incubated on MCF-10A cells for four days before being tested for viability using the MTT assay. See Supplementary Materials.
# 4.2. Biological evaluation
# 4.2.1. Cytotoxic activity using MTT Assay and evaluation of IC50
# MTT assay was performed to investigate the effect of the synthesized compounds on mammary epithelial cells (MCF-10A). The cells were propagated in medium consisting of Ham's F-12 medium/ Dulbecco's modified Eagle's medium (DMEM) (1:1) supplemented with 10% foetal calf serum, 2 mM glutamine, insulin (10 μg/mL), hydrocortisone (500 ng/mL) and epidermal growth factor (20 ng/mL). Trypsin ethylenediamine tetra acetic acid (EDTA) was used to passage the cells after every 2-3 days. 96-well flat-bottomed cell culture plates were used to seed the cells at a density of 10^4 cells mL-1. The medium was aspirated from all the wells of culture plates after 24 h followed by the addition of synthesized compounds (in 200 μL medium to yield a final concentration of 0.1% (v/v) dimethyl sulfoxide) into individual wells of the plates. Four wells were designated to a single compound. The plates were allowed to incubate at 37°C for 96 h. Afterwards, the medium was aspirated and 3-[4,5-dimethylthiazol-2-yl]-2,5-diphenyltetrazolium bromide (MTT) (0.4 mg/mL) in medium was added to each well and subsequently incubated for 3 h. The medium was aspirated and 150 μL dimethyl sulfoxide (DMSO) was added to each well. The plates were vortexed followed by the measurement of absorbance at 540 nm on a microplate reader. The results were presented as inhibition (%) of proliferation in contrast to controls comprising 0.1%
# [2] = system: four human cancer cell lines (A-549, MCF-7, Panc-1, HT-29); assay: Antiproliferative assay, average over the four cancer cell lines (GI50); format: cell-based; conditions: average of the four cancer cell lines
# Description: See Supplementary Materials.
# 4.2.1.2. Assay for antiproliferative effect
# To explore the antiproliferative potential of compounds propidium iodide fluorescence assay was performed using different cell lines such as Panc-1 (pancreas cancer cell line), MCF-7 (breast […]
# To calculate the total nuclear DNA, a fluorescent dye (propidium iodide, PI) is used which can attach to the DNA, thus offering a quick and precise technique. PI cannot pass through the cell membrane and its signal intensity can be considered as directly proportional to quantity of cellular
# DNA. Cells whose cell membranes are damaged or have changed permeability are counted as dead ones. The assay was performed by seeding the cells of different cell lines at a density of 3000- […]
# The medium was removed; the compounds were added to the plates at 10 μM concentrations (in 0.1% DMSO) in triplicates, followed by incubation for 48h. DMSO (0.1%) was used as control. After incubation, medium was removed followed by the addition of PI (25 μl, 50μg/mL in water/medium) to each well of the plates. At - 80 °C, the plates were allowed to freeze for 24 h, followed by thawing at 25 °C. A fluorometer (Polar-Star BMG Tech) was used to record the readings at excitation and emission wavelengths of 530 and 620 nm for each well. The percentage cytotoxicity of compounds was calculated using […]
# Where ATC= Absorbance of treated cells and AC= Absorbance of control. […]
# positive control in the assay.
# Bax = Bax level assay in A-549 cells; format: cell-based, human; conditions: for Bax Conc: control 9; for Bax Fold Change: vs control
# Description: caspase8, and lysed with Cell Extraction Buffer. This lysate was diluted in Standard Diluent Buffer over the range of the assay and measured for human active caspase-8 content. […]
# 4.2.7. Bax activation assay
# Bring all reagents, except the human Bax-α Standard, to room temperature for at least 30 minutes prior to opening. The human Bax-α Standard solution should not be left at room temperature for more than 10 minutes. All standards, controls and samples should be run in duplicate. Refer to the Assay Layout Sheet to determine the number of wells to be used and put any remaining wells with the desiccant back into the pouch and seal the ziploc. Store unused wells at 4 °C. Pipet 100 μL of Assay Buffer into the S0 (0 pg/mL standard) wells. Pipet 100 μL of Standards #1 through #6 into the appropriate wells. Pipet 100 μL of the Samples into the appropriate wells. Tap the plate gently to mix the contents. Seal the plate and incubate at room temperature on a plate shaker for 1 hour at ~500 rpm. Empty the contents of the wells and wash by adding 400 μL of wash solution to every well. Repeat the wash 4 more times for a total of 5 washes. After the final wash, empty or aspirate the wells and firmly tap the plate on a lint free paper towel to remove any remaining wash buffer.
# Pipet 100 μL of yellow Antibody into each well, except the Blank. Seal the plate and incubate at room temperature on a plate shaker for 1 hour at ~500 rpm. Empty the contents of the wells and wash by adding 400 μL of wash solution to every well. Repeat the wash 4 more times for a total of 5 washes. After the final wash, empty or aspirate the wells and firmly tap the plate on a lint free paper towel to remove any remaining wash buffer. Add 100 μL of blue Conjugate to each well, except the Blank. Seal the plate and incubate at room temperature on a plate shaker for 30 minutes […]
# Pipet 100 μL of Substrate Solution into each well. Incubate for 30 minutes at room temperature on a plate shaker at ~500 rpm. Pipet 100 μL Stop Sol ution to each well. Blank the plate reader against the Blank wells, read the optical density at 450 nm. Calculate the average net Optical Density (OD) bound for each standard and sample by subtracting the average Blank OD from the average OD for each standard and sample. Using linear graph paper, plot the Average Net OD for each standard versus Bax concentration in each standard. Approximate a straight line through the points.
# The concentration of Bax in the unknowns can be determined by interpolation. […]
# BRAF^V600E = BRAF^V600E (Mus musculus, UniProt P28028, V585E); assay: BRAF^V600E inhibitory assay
# Sequence of BRAF^V600E (P28028 whole entry V585E): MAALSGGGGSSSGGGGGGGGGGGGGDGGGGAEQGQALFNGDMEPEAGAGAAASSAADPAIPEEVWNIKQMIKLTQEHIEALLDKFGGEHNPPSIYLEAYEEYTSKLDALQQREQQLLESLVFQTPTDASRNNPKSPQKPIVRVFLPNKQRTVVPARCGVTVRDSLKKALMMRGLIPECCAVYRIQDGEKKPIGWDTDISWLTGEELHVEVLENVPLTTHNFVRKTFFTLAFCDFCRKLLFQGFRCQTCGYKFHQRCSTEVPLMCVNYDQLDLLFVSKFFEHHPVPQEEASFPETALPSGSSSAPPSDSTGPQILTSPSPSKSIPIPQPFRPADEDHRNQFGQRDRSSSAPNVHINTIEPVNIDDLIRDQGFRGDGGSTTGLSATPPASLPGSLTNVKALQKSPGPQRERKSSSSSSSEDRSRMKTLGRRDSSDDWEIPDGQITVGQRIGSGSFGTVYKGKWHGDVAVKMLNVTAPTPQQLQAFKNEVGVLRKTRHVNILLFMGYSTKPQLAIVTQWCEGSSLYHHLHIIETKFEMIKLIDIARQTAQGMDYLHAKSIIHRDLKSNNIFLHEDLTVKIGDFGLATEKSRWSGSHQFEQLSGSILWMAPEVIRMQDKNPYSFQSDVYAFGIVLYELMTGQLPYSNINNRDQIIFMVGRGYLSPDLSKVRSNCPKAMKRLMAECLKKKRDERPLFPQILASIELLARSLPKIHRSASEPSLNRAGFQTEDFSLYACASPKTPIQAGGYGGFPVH
# Description: BRAFV600E inhibitory assay
# V600E mutant BRAF kinase assay was performed to investigate the activity of tested compounds against BRAF. Mouse full-length GST-tagged BRAFV600E (7.5 ng, Invitrogen, PV3849) was pre-incubated with drug (1 µL) and assay dilution buffer (4 µL) for 60 min at 25 °C. In assay dilution buffer, a solution (5 µL) containing MgCl2 (30 mM), ATP (200 µM), recombinant human full length (200 ng) and N-terminal His-tagged MEK1 (Invitrogen) was added to start the assay, subsequent to incubation for 25 min at 25 °C. The assay was stopped using 5X protein denaturing buffer (LDS) solution (5 µL). To further denature the protein, heat (70° C) was applied for 5 min.
# 10 µL of each reaction was loaded into the precast plates and electrophoresis was allowed to proceed. After completion of electrophoresis, the front part of the precast gel plate (holding hot ATP) was cut and afterwards cast-off. The dried gel was developed using a phosphor screen.
Compound,"viability at 96 h, 50 µM [1] [%]",GI50 [2] [nM],Bax Conc (Bax) [pg/mL],Bax Fold Change (Bax),IC50 (BRAF^V600E) [nM],melting point [°C]
"O=C(NCC(c1ccccc1)c1c(-c2ccccc2)[nH]c2ccccc12)c1cc2cc(Cl)ccc2[nH]1 (stereo not drawn) [Compound Va, 5-Chloro-N-(2-phenyl-2-(2-phenyl-1H-indol-3-yl)ethyl)-1H-indole-2-carboxamide]",91,26,410,45,77 ± 6,112 to 114
"CO/C=C/c1c(C(=O)NCC(c2ccccc2)c2c(-c3ccccc3)[nH]c3ccccc23)[nH]c2ccc(Cl)cc12 (stereo not drawn) [Compound Vg, (E)-5-Chloro-3-(2-methoxyvinyl)-N-(2-phenyl-2-(2-phenyl-1H-indol-3-yl)ethyl)-1H-indole-2-carboxamide]",89,31,320,35,83 ± 6,140 to 142
